# Measured values as given in US20250057813A1, “APOPTOSIS RELATED PROTEIN IN THE TGF-BETA SIGNALING PATHWAY (ARTS) MIMETIC COMPOUNDS, COMPOSITIONS, METHODS AND USES THEREOF IN INDUCTION OF APOPTOSIS” (Carmel-Haifa University Economic Corporation Ltd., priority 2022, published 2025).
# Legend:
# [1] = target: T1, binding between XIAP and p53 (Homo sapiens, UniProt P98170); experiment: BiFC assay in WT MEFs (VN-p53 and VC-XIAP); format: cell-based; conditions: 20 μM B3 for 18 hours
# T1 construct: expressed in transfected cells; host or cells: WT MEFs
# Text: The split-Venus BiFC system was used to evaluate close proximity indicating possible direct binding between pairs of proteins. The proteins were fused either to the N-terminal part of the VenusYFP (yellow fluorescence protein) (VN) or the C-terminal domain (VC). All Venus fragments were fused to the C-terminal sequences of these proteins. The Jun and bFos pair was used as a positive control (p.c.), and the Jun and bFosdeltaZTP pair was used as a negative control (n.c.). A vector encoding dsRed was used as a transfection efficiency marker.
# [2] = system: MCF10AT1K (M2) cells; experiment: 3D BME culture of M2 organoids, light microscopy; format: cell-based, Human
# Procedure: Cells were harvested from their growth plates using 0.25% trypsin EDTA. Collected cells were cultured in Cultrex® growth factor reduced Basement Membrane Extract (BME: Trevigen, Inc) as follows: An 8 chamber glass slide system (Lab-TEK® II, Naperville, IL) was coated with 60 μl BME [Barkan D. et al., Cancer Research (2008)](protein concentration between […]; thickness-1-2 mm). 5×10^3 cells per well were re-suspended in DMEM/F12 supplemented with 2.5% DHS and 2% BME and cultured on the coated slides. Slides were incubated at 37° C., 5% CO2 incubator. Cells were re-fed every 4 days. Cell morphology was monitored by light microscopy. Immunofluorescence images were captured by Nikon Al—R confocal laser scanning microscope (Haifa University, Haifa, Israel).
# [3] = system: p53 Ubiquitylation in HCT 116 XIAP KO cells; experiment: In vivo ubiquitylation assay of p53; format: cell-based; conditions: 20 μM B3, XIAP KO cells
# Procedure: (§1) All cells were transiently transfected with a Ub-HA (ubiquitin-tagged with HA) construct and treated with a proteasome inhibitor (Bortezomib or MG-132, at 20 μM for 6 h). after 1 h of proteasome inhibitor incubation, B3 (20 μM) or DMSO was added to the medium for an additional 5 h. After 6 h of Bortezomib/MG-132 along with 5 h of B3 treatments, the cells were harvested and lysed using RIPA buffer (Tris-HCl pH 7.5 50 mM, NaCl 150 mM, NP-40 (Igepal) 0.3%) containing protease inhibitor cocktail (Complete, Roche), 100 µg/ml PMSF, 5 mM N-ethylmaleimide, and 5 mM iodoacetamide to preserve ubiquitin chains. Following 15 min of centrifugation (10,000×g, 4° C.), the supernatant was transferred into a clean Eppendorf tube. A ubiquitination assay using immunoprecipitation with anti-p53 antibody (CS2524) (endogenous p53 was pulled down) was performed as described above with 1:500 antibody per 1000 μg protein. Poly-ubiquitylated forms of p53 were detected using an anti-p53 antibody (DO-1, sc-126).
# [4] = system: p53 Ubiquitylation in HCT 116 WT; experiment: In vivo ubiquitylation assay of p53; format: cell-based; conditions: 20 μM B3, 5 h, with proteasome inhibitor
# Procedure: as §1
# [5] = system: A375 human melanoma cells; experiment: SDS PAGE and Western blot analysis of A375 cells; format: cell-based
# Procedure: The cells were lysed in WCE (whole-cell extract) buffer [25 mM Hepes, pH 7.7, 0.3M NaCl, 1.5 mM MgCl2, 0.2 mM EDTA, 0.1% Triton X-100, 100[μg/ml PMSF and protease inhibitor cocktail (Roche, 1:100 dilution)]. 100 μg of total cell protein, measured with the Bio-Rad Protein Assay kit, were separated by SDS-PAGE (12%) followed by transfer for 2 h on to a nitrocellulose membrane. The membrane was blocked with 5% (w/v) non-fat dried skimmed milk powder in PBS supplemented with 0.05% Tween20 (PBS-T) for 1 hour at room temperature (R.T). Membrane was then probed with primary antibody at 4° C. overnight. Next, the membrane was incubated with the appropriate HRP-conjugated secondary antibody, for 1 hour at R.T. and washed 15 min ×3 with PBS-T. WesternBright ECL (Advansta) was added to the membrane for 2 min and analyzed using ImageQuant LAS-4000 analyzer (GE Healthcare Life Sciences) & “ImageQuant LAS-4000” software (GE Healthcare Life Sciences). Densitometry analysis was performed using ImageQuant total lab 7 (GE Healthcare Life Sciences), image analysis software.
# Cells were lysed in whole-cell extract buffer [25 mM HEPES, pH 7.7, […], 1.5 mM MgCl2, 0.2 mM EDTA, 0.1% Triton X-100, 100 μg/ml phenylmethylsulfonyl fluoride (PMSF) and protease inhibitor cocktail (Roche, 1:100 dilution)] and placed on ice for 30 min (vortexing once after 15 min). After 30 minutes, the samples were centrifuged at 13,000×g for 10 minutes at 4° C. The supernatants containing total protein were measured for protein concentration using Bio-Rad Protein Assay Dye Reagent Concentrate Kit. 40 to […] was separated by sodium dodecyl sulfate-polyacrylamide gel electrophoresis (SDS-PAGE) (12% or 7.5%), followed by transfer to a nitrocellulose membrane. The membranes were blocked with 5% (w/v) non-fat dried skimmed milk powder in PBS supplemented with 0.05% Tween-20 (PBS-T) for 1 h at RT. Next, primary antibodies were added at 4° C. overnight or for 2 h at room temperature. Membranes were then incubated with secondary antibody for 1 h at RT and washed three times for 15 min each with PBS-T. Western Bright ECL (Advansta) was added to the membrane for 30-60 s and analyzed using Image Quant LAS-4000 (GE Healthcare Life Sciences) and Image Quant LAS-4000 software (GE Healthcare Life Sciences).
# T1 sequence (P98170 whole entry): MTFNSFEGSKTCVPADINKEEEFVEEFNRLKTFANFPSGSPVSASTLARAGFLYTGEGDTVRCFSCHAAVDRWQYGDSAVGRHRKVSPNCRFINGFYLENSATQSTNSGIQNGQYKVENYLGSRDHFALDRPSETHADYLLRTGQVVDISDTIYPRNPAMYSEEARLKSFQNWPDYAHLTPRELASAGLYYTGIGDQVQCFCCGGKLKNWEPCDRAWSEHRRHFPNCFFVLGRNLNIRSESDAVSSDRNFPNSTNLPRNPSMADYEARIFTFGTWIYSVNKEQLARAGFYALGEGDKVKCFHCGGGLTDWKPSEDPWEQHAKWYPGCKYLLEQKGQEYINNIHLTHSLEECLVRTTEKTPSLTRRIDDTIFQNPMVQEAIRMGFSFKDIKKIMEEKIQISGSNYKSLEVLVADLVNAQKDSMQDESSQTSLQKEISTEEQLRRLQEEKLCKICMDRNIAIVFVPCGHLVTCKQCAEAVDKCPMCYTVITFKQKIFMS
smiles,measurement,setting,value
"Cn1ccnc1C(=O)c1ccc(NC(=O)C(=O)N[C@H](CO)Cc2ccccc2)cc1 [B3, (S)-N1-(1-hydroxy-3-phenylpropan-2-yl)-N2-(4-(1-methyl-1H-imidazole-2-carbonyl)phenyl)oxalamide]",binding between VN-p53 and VC-XIAP,[1],disrupted
same,"cellular death (blebbing, cell shrinkage)","[2]; 40 μM, 24 h",induced cellular death
same,"cellular death (blebbing, cell shrinkage)","[2]; increasing concentrations, 7 days, dose dependent",induced cellular death
same,p53 Ubiquitylation levels,[3],no effect
same,Ubiquitylation of p53,[4],inhibit
same,Bcl-2 levels,"[5]; 20 μM, 24 hrs",clearly reduced
same,XIAP levels,"[5]; 20 μM, 24 hrs",clearly reduced
same,cleavage of Caspase 3,"[5]; 20 μM, 24 hrs",increased
same,cleavage of Caspase 9,"[5]; 20 μM, 24 hrs",increased
same,cleavage of PARP,"[5]; 20 μM, 24 hrs",increased
same,MDM2 levels,"[5]; 20, 30, 40 μM B3, 24 hours",reduction
same,XIAP levels,"[5]; 20, 30, 40 μM B3, 24 hours",reduction
same,cPARP or caspase3,"[5]; 20, 30, 40 μM B3, 24 hours",elevation
same,p53 levels,"[5]; 20, 30, 40 μM B3, 24 hours",elevation
same,ARTS levels,"[5]; B3 in combined treatment with ABT-199, 24 hrs",downregulated
same,Bcl-2 levels,[5]; six hours of B3 treatment,decreased
